{"source": "patent US9044452B2", "about": "“Use of resiniferatoxin (RTX) for producing an agent for treating joint pains and method for applying said agent” (MESTEX AG, priority 2004, dated 2015)", "key": {"[1]": {"tested_on": "knee joint", "assay": "Injection of resiniferatoxin solution into the intracapsular space of a patient's knee joint", "type": "in vivo, human", "method": "(§1) Under the optionally simultaneous (image converter, CT, sonography, MRI, etc.) or subsequent (x-ray, CT, MRI, sonography, arthroscopy, etc.) imaging control, the therapist brought an injection needle into the joint space of a knee joint and injected 9 mL of a 500 nmolar solution (approximately 0.003 mg) of resiniferatoxin into the intracapsular space. The patient noted a clear alleviation of their symptoms already 14 hours after the intervention. This alleviation lasted for more than 6 months.\nUnder the optionally simultaneous (image converter, CT, sonography, MRI, arthroscopy, etc.) or subsequent (x-ray, CT, MRI, sonography, etc.) imaging control, the therapist brought an injection needle into the joint space of a knee joint and injected […] of a 500 nmolar solution (approximately 0.006 mg) of resiniferatoxin into the intracapsular space. The patient noted a clear alleviation of their symptoms already a few days after the intervention. This alleviation lasted for more than 6 months.\nThe injected solution corresponded to that of Example 1 with the difference that, for the imaging method to be used, 5 mL of a visible contrasting agent (Iopamidol) was added at a concentration of 50 g/100 mL. After the injection, this contrasting agent spread out within the joint capsule and documented the position of the injection needle and the distribution of the RTX within the joint capsule. The injected solution, containing RTX, was drawn off again directly after the injection. It could, however, also be drawn off after a defined, substance-dependent time of action or not be drawn off at all. The patient noted a clear alleviation of their symptoms already 15 hours after the intervention. This alleviation lasted for more than 8 months.\nas §1, with “nM (approx.” for “nmolar solution (approximately”, “mg) solution” for “mg)”, “resiniferatoxin, buffered with a buffer to a pH of 8.5, together physiological salt solution” for “resiniferatoxin”, “a few minutes” for “14 hours”\nUnder the optionally simultaneous (image converter, CT, sonography, MRI, etc.) or subsequent (x-ray, CT, MRI, sonography, arthroscopy, etc.) imaging control, the therapist, brought an injection needle into the joint space of a knee joint and injected 9 mL of a 500 nmolar solution (approximately 0.003 mg) of resiniferatoxin, buffered to a pH of 6.5 with a buffer, together with a physiological salt solution into the intracapsular space.\nUnder the optionally simultaneous (image converter, CT, sonography, MRI, etc.) or subsequent (x-ray, CT, MRI, sonography, arthroscopy, etc.) imaging control, the therapist, brought an injection needle into the joint space of a knee joint and injected 9 mL of a 500 nmolar solution (approximately 0.003 mg) of resiniferatoxin, in a physiological Ringer solution with 10 mmolar Ca2+ into the intracapsular space."}, "[2]": {"tested_on": "affected joint", "assay": "Continuous infusion of resiniferatoxin solution into the affected joint via infusion catheter", "type": "in vivo, human", "settings": "Example 4: 100 nmolar", "method": "The therapist placed a thin infusion catheter, similar to an epidural catheter, into the affected joint and, with a perfuser, injected a solution of […] of 100 nmolar of resiniferatoxin into the affected joint at a rate of 1-10 mL/h for 12 hours. Optionally, they also placed a drainage catheter with an optionally defined drainage resistance (such as 20 mm Hg), in order to achieve a liquid turnover. With this method, the therapist achieved a uniform infiltration of the painful joint, without large concentration peaks. Moreover, it was possible to define the period of action better.\nThe patient noted a clear alleviation of their symptoms already 12 hours after the intervention. This alleviation lasted for more than 1 year."}, "[3]": {"tested_on": "postoperative pain", "assay": "Injection of resiniferatoxin after knee or hip joint prosthesis implantation (postoperative pain)", "type": "in vivo, human", "method": "After a knee joint prosthesis had been implanted, the therapist injected 50 mL of a solution of 100 nmolar (approximately 0.001 mg) solution of resiniferatoxin into the joint capsule, which had been closed off once again.\nAfter a hip joint prosthesis had been implanted, the therapist injected 50 mL of a solution of 100 nmolar (approximately 0.001 mg) solution of resiniferatoxin into the periprosthetic region without a capsule."}, "[4]": {"tested_on": "painful, septic loosening of a total hip endoprosthesis", "assay": "Injection into (neo)-capsule about the prosthesis in painful, septic loosening of a total hip endoprosthesis", "type": "in vivo, human", "method": "A solution of 5 μmolar (approximately 0.03 mg) solution of resiniferatoxin was injected into the (neo)-capsule about the prosthesis of a patient with a painful, septic loosening of a total hip endoprosthesis. […] Optionally, this treatment may be supported with systemically administered antibiotics (such as 450 mg of Rifampicin, 750 mg of ciproflaxacin)."}, "[5]": {"tested_on": "shoulder joint", "assay": "Injection into shoulder joint of patient with painful capsulitis of joints (frozen shoulder)", "type": "in vivo, human", "settings": "for joint mobility lost due to capsulitis: with physiotherapy", "method": "The shoulder joint of a patient with painful capsulitis of joints (frozen shoulder) was injected with 9 mL of a 100 nmolar (approximately 0.001 mg) solution of resiniferatoxin in physiological salt solution. Once again, it was possible to check the distribution of the substance by adding the appropriate contrasting agent and employing an imaging procedure. Optionally, a substance with antiphlogistic activity was admixed. […] For this application, only a temporary analgesia (2-3 weeks) is desired. For this reason, the concentration of the neurotoxic substances, if anything, was kept low.\nThe shoulder joint of a patient with painful capsulitis of joints (frozen shoulder) was injected with 3 mL of a 500 nmolar (approximately 0.001 mg) solution of resiniferatoxin in physiological salt solution."}, "[6]": {"tested_on": "chronically inflamed bursa (Bursa trochenterica)", "assay": "Injection into chronically inflamed bursa (Bursa trochenterica)", "type": "in vivo, human", "method": "The therapist injected 5 mL of a solution of a 500 nmolar (approximately 0.001 mg) solution of resiniferatoxin, buffered to a pH of 8.5 with a buffer, together with physiological salt solution as solvent, into a chronically inflamed bursa (Bursa trochenterica) over the greater trochanter of the hip. Within 60 minutes, the symptoms of the patient disappeared and the patient remained asymptomatic at this place for several years.\nThe therapist injected 50 mL of a 100 nmolar (approximately 0.001 mg) solution of resiniferatoxin in glycerin or Ringer lactate as solvent. Within 60 minutes, the symptoms of the patient disappeared and the patient remained asymptomatic at this place for several years."}, "[7]": {"assay": "Local application of RTX without local anesthetic, compared with capsaicin or with combination with local anesthetic", "type": "in vivo", "text": "Moreover, it is free of inflammation and pain. In particular, this preparation may be used without using ethanol, which otherwise is always necessary for the known intravesical administration. It is a further surprising advantage of the use without local or general anesthesia that, due to the injection, a warm, pleasant sensation sets in, which decisively supports combating pain. In this way, an amelioration of pain is achieved, which surpasses that of a combination with local anesthetics. This may also be explained by the antagonistic effect, which the local anesthetics have for vanilloid receptor agonists since they partially block the desired neurotoxic effect of vanilloids."}, "[8]": {"settings": "Example 1: 9 mL of 500 nmolar solution, knee joint, intracapsular"}, "[9]": {"settings": "Example 2: 20 mL of 500 nmolar solution, knee joint, intracapsular"}, "[10]": {"settings": "Example 3: solution of Example 1 plus 5 mL Iopamidol 50 g/100 mL, drawn off directly after injection"}, "[11]": {"settings": "Example 8: 9 mL of 500 nM solution buffered to pH 8.5, physiological salt solution, knee joint"}, "[12]": {"settings": "Example 9: 9 mL of 500 nmolar solution buffered to pH 6.5, physiological salt solution, knee joint"}, "[13]": {"settings": "Example 10: 9 mL of 500 nmolar solution in Ringer solution with 10 mmolar Ca2+, knee joint"}, "[14]": {"settings": "1-10 mL/h for 12 hours via catheter"}, "[15]": {"settings": "Example 7: 5 μmolar solution into (neo)-capsule about the prosthesis"}, "[16]": {"settings": "Example 11: 9 mL of 100 nmolar solution in physiological salt solution, shoulder joint"}, "[17]": {"settings": "Example 12: 3 mL of 500 nmolar solution in physiological salt solution, shoulder joint"}, "[18]": {"settings": "Example 13: 5 mL of 500 nmolar solution buffered to pH 8.5, physiological salt solution, bursa over greater trochanter"}, "[19]": {"settings": "Example 14: 50 mL of 100 nmolar solution in glycerin or Ringer lactate"}}, "data": [{"compound": "C=C(C)[C@]12C[C@@H](C)[C@@]34O[C@](Cc5ccccc5)(O[C@@H]1[C@@H]3C=C(COC(=O)Cc1ccc(O)c(OC)c1)C[C@]1(O)C(=O)C(C)=C[C@@H]41)O2", "note": "[resiniferatoxin]", "values": [{"measurement": "duration of alleviation", "setting": "[1]; [8]", "result": "more than 6 months"}, {"measurement": "time to clear alleviation of symptoms after the intervention", "setting": "[1]; [8]", "result": 14, "unit": "h"}, {"measurement": "duration of alleviation", "setting": "[1]; [9]", "result": "more than 6 months"}, {"measurement": "time to clear alleviation of symptoms after the intervention", "setting": "[1]; [9]", "result": "a few days"}, {"measurement": "duration of alleviation", "setting": "[1]; [10]", "result": "more than 8 months"}, {"measurement": "time to clear alleviation of symptoms after the intervention", "setting": "[1]; [10]", "result": 15, "unit": "h"}, {"measurement": "duration of alleviation", "setting": "[1]; [11]", "result": "more than 6 months"}, {"measurement": "time to clear alleviation of symptoms after the intervention", "setting": "[1]; [11]", "result": "a few minutes"}, {"measurement": "duration of alleviation", "setting": "[1]; [12]", "result": "more than 6 months"}, {"measurement": "time to clear alleviation of symptoms after the intervention", "setting": "[1]; [12]", "result": "Within minutes"}, {"measurement": "duration of alleviation", "setting": "[1]; [13]", "result": "more than 6 months"}, {"measurement": "time to clear alleviation of symptoms after the intervention", "setting": "[1]; [13]", "result": "Within minutes"}, {"measurement": "duration of alleviation", "setting": "[2]; [14]", "result": "more than 1 year"}, {"measurement": "time to clear alleviation of symptoms after the intervention", "setting": "[2]; [14]", "result": 12, "unit": "h"}, {"measurement": "inflamed tissue at subsequent arthroscopies", "setting": "[2]; 1-10 mL/h for 12 hours, arthroscopies after 1, 2, 7, 14 and 28 days", "result": "only a very little inflamed tissue was present"}, {"measurement": "postoperative pain", "setting": "[3]; Example 5: 50 mL of 100 nmolar solution into closed joint capsule after knee joint prosthesis", "result": "possible to minimize postoperative pain"}, {"measurement": "postoperative pain", "setting": "[3]; Example 6: 50 mL of 100 nmolar solution into periprosthetic region without capsule after hip joint prosthesis", "result": "possible to minimize postoperative pain"}, {"measurement": "bone substance about the prosthesis (radiological)", "setting": "[4]; Example 7: 5 μmolar solution", "result": "the bone substance had consolidated about the prosthesis"}, {"measurement": "duration of alleviation of pain", "setting": "[4]; [15]", "result": "more than one year"}, {"measurement": "time to alleviation of pain", "setting": "[4]; [15]", "result": "6 to 12", "unit": "h"}, {"measurement": "infection about the prosthesis", "setting": "[4]; Example 7: 5 μmolar solution, diffusion of RTX along the shaft and about the socket", "result": "brought very much under control"}, {"measurement": "pain after injection", "setting": "[5]; [16]", "result": "alleviated permanently"}, {"measurement": "time to alleviation of pain after the injection", "setting": "[5]; [16]", "result": "A few minutes"}, {"measurement": "joint mobility lost due to capsulitis", "setting": "[5]; Example 11: 9 mL of 100 nmolar solution", "result": "able to regain the mobility"}, {"measurement": "pain after injection", "setting": "[5]; [17]", "result": "abated permanently"}, {"measurement": "time to abatement of pain after the injection", "setting": "[5]; [17]", "result": "A few minutes"}, {"measurement": "joint mobility lost due to capsulitis", "setting": "[5]; Example 12: 3 mL of 500 nmolar solution", "result": "regained the mobility lost due to capsulitis"}, {"measurement": "duration patient remained asymptomatic", "setting": "[6]; [18]", "result": "several years"}, {"measurement": "time to disappearance of symptoms", "setting": "[6]; [18]", "result": "≤ 60", "unit": "min"}, {"measurement": "duration patient remained asymptomatic", "setting": "[6]; [19]", "result": "several years"}, {"measurement": "time to disappearance of symptoms", "setting": "[6]; [19]", "result": "≤ 60", "unit": "min"}, {"measurement": "local tolerability (burning, inflammation of tissue)", "setting": "[7]; applied locally, without a local anesthetic", "result": "no burning and also no inflammation of tissue"}, {"measurement": "effectiveness of RTX by itself versus injection together with a local anesthetic", "setting": "[7]; local intraarticular injection at a very low concentration", "result": "more effective than an injection together with a local anesthetic"}]}]}
